PMC10548512 (Chemical Science, 2023)

System: H1N1pdm09 virus (A/Netherlands/602/2009) I375F mutant
Details: 1 h

In the case of `CC[C@H](C)[C@@H]1NC(=O)[C@H](CS)NC(=O)[C@H](CO)NC(=O)[C@H](CCCNC(=N)N)NC(=O)[C@H](CCCNC(=N)N)NC(=O)[C@H](Cc2ccc(O)cc2)NC(=O)[C@H](CCC(N)=O)NC(=O)[C@H](Cc2ccccc2)NC(=O)[C@H](CC(N)=O)NC(=O)[C@H](CC(C)C)NC(=O)[C@@H]2CSC(=N2)c2cc(ccn2)C[C@@H](C(=O)NCC(N)=O)NC(=O)[C@H](CC(N)=O)NC(=O)[C@H](CC(C)C)NC(=O)[C@H]([C@@H](C)CC)NC(=O)[C@H](CC(N)=O)NC(=O)[C@H](CC(C)C)NC1=O` [M3], the IC50 is reported as 364 nM.
